Broadly, the EC50 is the concentration needed to bring the measured effect to its halfway point. Lower therefore signals a more potent agent.

For the experiment, the target named is human mGluR2 (Homo sapiens (Human), UniProt Q14416). In words: MGluR2 cAMP assay. The settings on record: HEK293 cells clonally expressing human mGluR2, 1 μM forskolin, 1 μM LY-341495. Type of experiment: cell-based. The protocol: Clonally expressed human mGluR2 in HEK293 background was glutamate starved overnight in media without glutamine (GIBCO MEM 12360), containing 10% FBS, 1% penicillin streptomycin.
Chain of human mGluR2 (Q14416 19-872): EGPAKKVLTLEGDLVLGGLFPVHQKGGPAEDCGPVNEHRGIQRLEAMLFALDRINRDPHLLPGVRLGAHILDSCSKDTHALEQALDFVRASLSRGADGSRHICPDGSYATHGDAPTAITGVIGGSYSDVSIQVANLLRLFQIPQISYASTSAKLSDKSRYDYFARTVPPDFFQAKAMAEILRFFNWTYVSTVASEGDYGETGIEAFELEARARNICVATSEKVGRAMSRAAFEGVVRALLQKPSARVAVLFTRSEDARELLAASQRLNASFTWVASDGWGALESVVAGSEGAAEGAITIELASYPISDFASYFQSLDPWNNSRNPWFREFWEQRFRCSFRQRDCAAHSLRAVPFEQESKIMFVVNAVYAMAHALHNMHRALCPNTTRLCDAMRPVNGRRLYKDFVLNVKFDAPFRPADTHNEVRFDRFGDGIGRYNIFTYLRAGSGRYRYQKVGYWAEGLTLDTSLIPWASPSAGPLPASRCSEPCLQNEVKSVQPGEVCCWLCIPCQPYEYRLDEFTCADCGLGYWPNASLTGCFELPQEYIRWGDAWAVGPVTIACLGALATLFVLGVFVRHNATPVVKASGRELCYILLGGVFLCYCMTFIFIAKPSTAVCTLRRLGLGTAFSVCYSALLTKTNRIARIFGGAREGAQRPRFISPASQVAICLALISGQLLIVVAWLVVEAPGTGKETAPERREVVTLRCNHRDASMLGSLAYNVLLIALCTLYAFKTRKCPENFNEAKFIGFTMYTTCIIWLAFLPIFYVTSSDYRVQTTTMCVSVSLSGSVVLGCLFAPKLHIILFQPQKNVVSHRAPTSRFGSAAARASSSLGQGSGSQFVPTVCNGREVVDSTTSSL
On the day of the assay, media was removed, cells washed with PBS, cells harvested and pelleted by centrifugation. Cell pellets were resuspended in stimulation buffer without forskolin and counted. A solution of 1.25×10^6 cells/ml was prepared and dispensed to plates using a Combi liquid handler (Thermo). A standard curve was created using a top concentration of cAMP of 1 μM in the stimulation buffer, 1:3 dilutions over 14 points in the absence of cells. Plates were read by time-resolved fluorescence at […] and a ratio was calculated via in house software, (665 nM/618 nM)*10^4. In house software converted the fluorescence value ratios to units of cAMP concentration, which is then used to calculate % inhibition for each test compound.
Compounds were added to white, standard volume 384 non-binding surface plates (Corning 3574). Cells were resuspended in stimulation buffer consisting of Hanks Balanced Salt Solution (14175-095) pH 7.0, 20 mM HEPES, 2.0 mM CaCl2, 5.0 mM MgCl2, and 1 mM IBMX (Sigma 15879), 1 μM forskolin, and 1 μM LY-341495, for 30 minutes. Buffer without forskolin was used as a negative control. Solutions of D2 and cryptate detection reagents from the CISBIO dynamic cAMP kit (62AM4PEJ) were diluted 1:40 in lysis buffer. Lysis buffer consisted of 50 mM Phosphate Buffer pH 7.0, 800 mM Potassium Fluoride, 0.2% BSA, and 1.0% Triton. Assay reaction was terminated by addition of detection reagents in lysis buffer. One hour later, plates were read on a PE Viewlux. Data was extracted, and concentration response curves generated by fitting the data to a standard 4 parameter logistic equation from which EC50 values were determined See table 1: A: <10 nM; B: 10-100 nM; C: 100-1000 nM; D: 1000-10000 nM.
For orientation: cAMP levels reflect the balance of adenylyl cyclase and phosphodiesterase activity.
As for `COc1cccc(C2CCN(c3cnn4c(CC5CC5)nnc4c3Cl)CC2)c1` [Example 28, 8-Chloro-3-(cyclopropylmethyl)-7-(4-(3-methoxyphenyl)piperidin-1-yl)-[1,2,4]triazolo[4,3-b]pyridazine], a half-maximal effect (EC50) was put at 38 nM. With `Cc1ccccc1C1CCN(c2cnn3c(CC4CC4)nnc3c2Cl)CC1` [Example 29, 8-Chloro-3-(cyclopropylmethyl)-7-(4-(o-tolyl)piperidin-1-yl)-[1,2,4]triazolo[4,3-b]pyridazine] the figure was 21 nM.

Molecule `COc1ccc(C2CCN(c3cnn4c(CC5CC5)nnc4c3Cl)CC2)cc1` [Example 30, 8-Chloro-3-(cyclopropylmethyl)-7-(4-(4-methoxyphenyl)piperidin-1-yl)-[1,2,4]triazolo[4,3-b]pyridazine] displayed an EC50 of 18 nM. Then `COC(=O)c1ccccc1C1CCN(c2cnn3c(CC4CC4)nnc3c2Cl)CC1` [Example 31, Methyl 2-(1-(8-chloro-3-(cyclopropylmethyl)-[1,2,4]triazolo[4,3-b]pyridazin-7-yl)piperidin-4-yl)benzoate], with 38 nM; and `COC(=O)c1ccccc1C1CCN(c2cnn3c(CC(F)(F)F)nnc3c2Cl)CC1` [Example 32, Methyl 2-(1-(8-chloro-3-(2,2,2-trifluoroethyl)-[1,2,4]triazolo[4,3-b]pyridazin-7-yl)piperidin-4-yl)benzoate], with 15 nM.

`Clc1c(NCC2Cc3ccccc3C2)cnn2c(CC3CC3)nnc12` [Example 33, 8-Chloro-3-(cyclopropylmethyl)-N-((2,3-dihydro-1H-inden-2-yl)methyl)-[1,2,4]triazolo[4,3-b]pyridazin-7-amine] came in with an EC50 of 21 nM.

As for `COc1cccc(F)c1C1CCN(c2cc3nnc(CC4CC4)n3cn2)CC1` [Example 34, 3-(Cyclopropylmethyl)-7-(4-(2-fluoro-6-methoxyphenyl)piperidin-1-yl)-[1,2,4]triazolo[4,3-c]pyrimidine], the response was half-maximal at 649 nM (EC50). This EC50 lies about 31-fold higher than the previous one. `COc1ccc(OC)c(C2CCN(c3cnn4c(CC5CC5)nnc4c3Cl)CC2)c1` [Example 35, 8-Chloro-3-(cyclopropylmethyl)-7-(4-(2,5-dimethoxyphenyl)piperidin-1-yl)-[1,2,4]triazolo[4,3-b]pyridazine] had an EC50 of 6 nM. Then `COc1ccc(OC)c(C2CCN(c3cnn4c(CC(F)(F)F)nnc4c3Cl)CC2)c1` [Example 36, 8-Chloro-7-(4-(2,5-dimethoxyphenyl)piperidin-1-yl)-3-(2,2,2-trifluoroethyl)-[1,2,4]triazolo[4,3-b]pyridazine], with 7 nM. With `COc1ccc(C2CCN(c3cnn4c(CC5CC5)nnc4c3Cl)CC2)c(OC)c1` [Example 37, 8-Chloro-3-(cyclopropylmethyl)-7-(4-(2,4-dimethoxyphenyl)piperidin-1-yl)-[1,2,4]triazolo[4,3-b]pyridazine] the figure was 9 nM; with `COc1ccc(C2CCN(c3cnn4c(CC(F)(F)F)nnc4c3Cl)CC2)c(OC)c1` [Example 38, 8-Chloro-7-(4-(2,4-dimethoxyphenyl)piperidin-1-yl)-3-(2,2,2-trifluoroethyl)-[1,2,4]triazolo[4,3-b]pyridazine], 5 nM; with `COc1cccc(F)c1C1CC1CNc1cnn2c(CC3CC3)nnc2c1Cl` (centres unmarked) [Example 39, 8-Chloro-3-(cyclopropylmethyl)-N-((2-(2-fluoro-6-methoxyphenyl)cyclopropyl)methyl)-[1,2,4]triazolo[4,3-b]pyridazin-7-amine], 28 nM. Then `COc1cccc(F)c1C1CC1CNc1cnn2c(CC(F)(F)F)nnc2c1Cl` (centres unmarked) [Example 40, 8-Chloro-N-((2-(2-fluoro-6-methoxyphenyl)cyclopropyl)methyl)-3-(2,2,2-trifluoroethyl)-[1,2,4]triazolo[4,3-b]pyridazin-7-amine], with 31 nM; and `Clc1c(N2CCC(c3ccncc3)CC2)cnn2c(CC3CC3)nnc12` [Example 41, 8-Chloro-3-(cyclopropylmethyl)-7-(4-(pyridin-4-yl)piperidin-1-yl)-[1,2,4]triazolo[4,3-b]pyridazine], with 275 nM.

Source of the values: patent US9682980B2, “Positive allosteric modulators of mGluR2” (BRISTOL-MYERS SQUIBB COMPANY, priority 2012, dated 2017).
